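Five concentrations, 48 hours, 96-well plates. Abbreviation: GI50, concentration required for 50% inhibition of growth. TGI: total growth inhibition.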 *1 amine or outer side, *2 acyl side, *3 side chain or, on linkers, in order; H or OH if unused. Where a SMILES comes first, the peptide text is derived from it. Bridges are numbered along the chain shown (N, C = ends). [ ]: non-standard residue; d: D form. ξ: configuration not given here. X35 = CC[C@H](C)[C@@H](N[*:1])[C@@H](O)CC(=O)O[C@H](C(=O)[C@H](C)C(=O)[*:2])C(C)C; NMeY = CN[C@@H](Cc1ccc(O)cc1)C(=O)O; dNMeL = CN[C@H](CC(C)C)C(=O)O; ξΔPro = O=C(O)C1C=CCN1
Tests used:
Assay in all cases: DTP human tumour cell line panel, 48 h; in the data active means GI50 below about 0.43 µM; inactive means the rest
NCI-H460 lung = system: NCI-H460 lung
MDA-MB-435 = system: MDA-MB-435
NCI-H226 lung = system: NCI-H226 lung
HCC-2998 colon = system: HCC-2998 colon
OVCAR-8 ovarian = system: OVCAR-8 ovarian
RPMI-8226 leukemia = system: RPMI-8226 leukemia
MCF7 breast = system: MCF7 breast
SNB-75 CNS = system: SNB-75 CNS
786-0 renal = system: 786-0 renal
BT-549 breast = system: BT-549 breast

Cc1nc2cccc(F)c2c(=O)n1-c1nnc(C(F)(F)F)s1
> 10 µM: TGI (NCI-H460 lung) | TGI (MDA-MB-435) | TGI (NCI-H226 lung) | TGI (HCC-2998 colon) | TGI (OVCAR-8 ovarian) | TGI (RPMI-8226 leukemia) | TGI (MCF7 breast) | TGI (SNB-75 CNS) | TGI (786-0 renal)

Cc1ccc(/C=C2/NC(=S)SC2=O)cc1
50.4 µM: TGI (NCI-H460 lung)
80.8 µM: TGI (SNB-75 CNS)
> 100 µM: TGI (MDA-MB-435) | TGI (NCI-H226 lung) | TGI (HCC-2998 colon) | TGI (OVCAR-8 ovarian) | TGI (MCF7 breast) | TGI (786-0 renal)
54.2 µM: TGI (BT-549 breast)

COc1cc(CNC(=S)CCCCCCCCCCC(C)C)ccc1O
> 100 µM: TGI (NCI-H460 lung) | TGI (MDA-MB-435) | TGI (HCC-2998 colon) | TGI (OVCAR-8 ovarian) | TGI (RPMI-8226 leukemia) | TGI (MCF7 breast) | TGI (SNB-75 CNS) | TGI (786-0 renal)
86.3 µM: TGI (NCI-H226 lung)

C[C@]12CCC(=O)C=C1CC[C@@H]1[C@@H]2[C@@H](O)C[C@@]2(C)[C@H]1CC[C@]2(O)C(=O)COC(=O)CCC1CCCC1
> 100 µM: TGI (NCI-H460 lung) | TGI (NCI-H226 lung) | TGI (HCC-2998 colon) | TGI (OVCAR-8 ovarian) | TGI (SNB-75 CNS) | TGI (786-0 renal)

C=C(C)[C@@H]1CC[C@]2(CO)CC[C@]3(C)[C@H](CC[C@@H]4[C@@](C)(CCCN)[C@H](C(=C)C)CC[C@]43C)[C@@H]12
3.16 µM: TGI (MDA-MB-435)
3.24 µM: TGI (NCI-H460 lung)
3.99 µM: TGI (RPMI-8226 leukemia)
inactive: GI50 (NCI-H460 lung) 1.65 µM | GI50 (MDA-MB-435) 1.72 µM | GI50 (HCC-2998 colon) 1.79 µM | GI50 (RPMI-8226 leukemia) 1.46 µM | GI50 (SNB-75 CNS) 1.48 µM
2.82 µM: TGI (SNB-75 CNS)
3.3 µM: TGI (HCC-2998 colon)

CCN(CCCl)c1cccc(NC(=O)c2ccc(C(=O)Nc3cccc(CN(C)C)c3)cc2)c1
0.368 µM: TGI (HCC-2998 colon)
0.759 µM: TGI (SNB-75 CNS)
27 µM: TGI (RPMI-8226 leukemia)
1.09 µM: TGI (MCF7 breast)
0.114 µM: TGI (MDA-MB-435)
1.36 µM: TGI (NCI-H460 lung)
1.35 µM: TGI (OVCAR-8 ovarian)

CCOC(=O)CCC(NC(=O)OCc1ccccc1)C(=O)NC(CCC(=O)OCC)C(=O)NC(CCC(=O)OCC)C(=O)NNC(=O)OC(C)(C)C (configuration not stated)
> 100 µM: TGI (NCI-H460 lung) | TGI (NCI-H226 lung) | TGI (HCC-2998 colon) | TGI (OVCAR-8 ovarian) | TGI (RPMI-8226 leukemia) | TGI (MCF7 breast) | TGI (BT-549 breast) | TGI (SNB-75 CNS) | TGI (786-0 renal)

Cn1ccc2c(c1=O)C(=O)OC2(C)C
> 100 µM: TGI (NCI-H460 lung) | TGI (NCI-H226 lung) | TGI (HCC-2998 colon) | TGI (OVCAR-8 ovarian) | TGI (RPMI-8226 leukemia) | TGI (MCF7 breast) | TGI (BT-549 breast) | TGI (SNB-75 CNS) | TGI (786-0 renal)

Cn1c(=O)n(CC2CS2)c2ccccc21 (configuration not stated)
> 100 µM: TGI (NCI-H460 lung) | TGI (NCI-H226 lung) | TGI (HCC-2998 colon) | TGI (RPMI-8226 leukemia) | TGI (SNB-75 CNS)

O=c1nc2ccc3sc4ccccc4c(=O)c3n2c(=O)[nH]1
> 100 µM: TGI (NCI-H460 lung) | TGI (MDA-MB-435) | TGI (NCI-H226 lung) | TGI (HCC-2998 colon) | TGI (OVCAR-8 ovarian) | TGI (RPMI-8226 leukemia) | TGI (MCF7 breast) | TGI (SNB-75 CNS) | TGI (786-0 renal)

COc1cc2oc(-c3ccc4c(c3)OCO4)c(OC)c(=O)c2c(O)c1OC
> 50 µM: TGI (NCI-H460 lung) | TGI (MDA-MB-435) | TGI (NCI-H226 lung) | TGI (HCC-2998 colon) | TGI (OVCAR-8 ovarian) | TGI (MCF7 breast) | TGI (BT-549 breast) | TGI (SNB-75 CNS) | TGI (786-0 renal)

C=C(CCOC)CCC1CCCCC(=C)[C@H]1O (some centres not stated)
> 100 µM: TGI (NCI-H460 lung) | TGI (MDA-MB-435) | TGI (NCI-H226 lung) | TGI (OVCAR-8 ovarian) | TGI (RPMI-8226 leukemia) | TGI (MCF7 breast) | TGI (SNB-75 CNS) | TGI (786-0 renal)

CC1(C)[C@@H](OC(N)=O)C=C[C@]2(CO)[C@H]3CC[C@]4(C)[C@@H](c5ccc(=O)oc5)[C@@H](Cl)C[C@]4(O)C3=CC[C@@H]12
0.0215 µM: TGI (MDA-MB-435)
0.0956 µM: TGI (RPMI-8226 leukemia)
0.0168 µM: TGI (NCI-H226 lung)
0.0299 µM: TGI (MCF7 breast)
0.00128 µM: TGI (NCI-H460 lung)
0.0776 µM: TGI (HCC-2998 colon)
active: GI50 (NCI-H460 lung) < 0.0001 µM | GI50 (MDA-MB-435) 0.00814 µM | GI50 (NCI-H226 lung) 0.00448 µM | GI50 (HCC-2998 colon) 0.0113 µM | GI50 (OVCAR-8 ovarian) 0.0028 µM | GI50 (RPMI-8226 leukemia) 0.00917 µM | GI50 (MCF7 breast) < 0.0001 µM
0.0151 µM: TGI (OVCAR-8 ovarian)

COc1ccc2c(c1)C(=O)C1CCC(=O)N1C2c1ccc2c(c1)OCO2 (configuration not stated)
11.6 µM: TGI (BT-549 breast)
28 µM: TGI (HCC-2998 colon)
24.4 µM: TGI (MDA-MB-435)
36.5 µM: TGI (SNB-75 CNS)
12.9 µM: TGI (RPMI-8226 leukemia)
44.2 µM: TGI (OVCAR-8 ovarian)
78.2 µM: TGI (786-0 renal)
64.4 µM: TGI (NCI-H460 lung)
30.3 µM: TGI (NCI-H226 lung)

CC(C#N)N(CCc1ccccc1)C(=O)c1ccccc1 (configuration not stated)
> 100 µM: TGI (MDA-MB-435) | TGI (NCI-H226 lung) | TGI (HCC-2998 colon) | TGI (OVCAR-8 ovarian) | TGI (RPMI-8226 leukemia) | TGI (MCF7 breast) | TGI (BT-549 breast) | TGI (SNB-75 CNS) | TGI (786-0 renal)

COc1cc2oc(=O)cc(C)c2c(OC)c1OC(C)=O
> 100 µM: TGI (MDA-MB-435) | TGI (NCI-H226 lung) | TGI (OVCAR-8 ovarian) | TGI (RPMI-8226 leukemia) | TGI (MCF7 breast) | TGI (SNB-75 CNS) | TGI (786-0 renal)

COc1cc2oc(=O)cc(C)c2cc1OC
> 100 µM: TGI (MDA-MB-435) | TGI (NCI-H226 lung) | TGI (OVCAR-8 ovarian) | TGI (RPMI-8226 leukemia) | TGI (MCF7 breast) | TGI (SNB-75 CNS) | TGI (786-0 renal)

Cc1ccc(/C=N\NC(=O)c2ccncc2)s1
> 100 µM: TGI (NCI-H460 lung) | TGI (MDA-MB-435) | TGI (NCI-H226 lung) | TGI (HCC-2998 colon) | TGI (OVCAR-8 ovarian) | TGI (RPMI-8226 leukemia) | TGI (MCF7 breast) | TGI (BT-549 breast) | TGI (786-0 renal)

CC[C@H](C)[C@H]1NC(=O)[C@@H](NC(=O)[C@@H](CC(C)C)N(C)C(=O)C2C=CCN2)[C@@H](C)OC(=O)[C@H](Cc2ccc(OC)cc2)N(C)C(=O)[C@@H]2CCCN2C(=O)[C@H](CC(C)C)NC(=O)[C@@H](C)C(=O)[C@H](C(C)C)OC(=O)C[C@@H]1O (some centres not stated) (H-[ξΔPro][dNMeL]T[X35]LP[NMeY](Me); ester 3-C)
0.0597 µM: TGI (786-0 renal)
0.0687 µM: TGI (MDA-MB-435)
0.0107 µM: TGI (SNB-75 CNS)
0.345 µM: TGI (BT-549 breast)
0.0488 µM: TGI (HCC-2998 colon)
< 0.005 µM: TGI (NCI-H226 lung)
0.0118 µM: TGI (OVCAR-8 ovarian)
0.423 µM: TGI (MCF7 breast)
0.114 µM: TGI (NCI-H460 lung)

O=P(O)(O)C=C=C1CCCCC1
> 100 µM: TGI (NCI-H460 lung) | TGI (MDA-MB-435) | TGI (NCI-H226 lung) | TGI (HCC-2998 colon) | TGI (OVCAR-8 ovarian) | TGI (MCF7 breast) | TGI (SNB-75 CNS) | TGI (786-0 renal)

Cc1cc2nc(-c3c(N)ncc(C#N)c3-c3ccc(Cl)cc3)[nH]c2cc1C
> 100 µM: TGI (NCI-H460 lung) | TGI (MDA-MB-435) | TGI (HCC-2998 colon) | TGI (RPMI-8226 leukemia) | TGI (MCF7 breast) | TGI (BT-549 breast)
inactive: GI50 (NCI-H460 lung) 30.4 µM | GI50 (MDA-MB-435) 26.2 µM | GI50 (NCI-H226 lung) 15 µM | GI50 (HCC-2998 colon) 20.9 µM | GI50 (OVCAR-8 ovarian) 4.53 µM | GI50 (RPMI-8226 leukemia) 5.55 µM | GI50 (MCF7 breast) 9.34 µM | GI50 (BT-549 breast) 37.6 µM | GI50 (SNB-75 CNS) 12.9 µM
46.3 µM: TGI (NCI-H226 lung)
32.4 µM: TGI (SNB-75 CNS)
29.6 µM: TGI (OVCAR-8 ovarian)

CCN(CC)/[N+]([O-])=N/O
> 100 µM: TGI (NCI-H460 lung) | TGI (NCI-H226 lung) | TGI (HCC-2998 colon) | TGI (OVCAR-8 ovarian)

CCn1c(=O)c2c3ccc(OC(C)=O)cc3[nH]c2c2ccc(OC(C)=O)cc21
54.4 µM: TGI (HCC-2998 colon)
89.5 µM: TGI (SNB-75 CNS)
> 100 µM: TGI (NCI-H460 lung) | TGI (MDA-MB-435) | TGI (NCI-H226 lung) | TGI (OVCAR-8 ovarian) | TGI (MCF7 breast) | TGI (BT-549 breast) | TGI (786-0 renal)

Reference: PubChem BioAssay (NCI)
